Results taken from US20060008542A1, “Preparation containing a mixture of picrorrhiza and ginkgo for the relief of disease” (priority 2002, published 2006).

Tested on: not listed separately
Assay: physchem
Details: not given

logP | Structure (SMILES)
≥ 5 | CCCCCCCCCCCCCCCCCC(O)CCCCCCCCC (centres unmarked) [10-heptacosanol]
≥ 5 | CCCCCCCCCCCCCCCCCCCC(O)CCCCCCCCC (centres unmarked) [10-nonacosanol]
≥ 5 | CCCCCCCCCCCCCCCCC(O)CCCCCCCCCCCC (centres unmarked) [13-nonacosanol]
1.6 | COc1cc(C(C)=O)ccc1O [Apocynin, 4-hydroxy-3-methoxyacetophenone]
≥ 5 | O=c1cc(-c2ccc(O)c(-c3c(O)cc(O)c4c(=O)cc(-c5ccc(O)cc5)oc34)c2)oc2cc(O)cc(O)c12 [amentoflavone]
-1.2 | COc1cc(C(C)=O)ccc1O[C@@H]1O[C@H](CO)[C@@H](O)[C@H](O)[C@H]1O [androsin]
≤ -2 | OCC1=C[C@@H](O)[C@@H]2C=CO[C@@H](O[C@@H]3O[C@H](CO)[C@@H](O)[C@H](O)[C@H]3O)[C@H]12 [aucubin]
≥ 5 | COc1ccc(-c2cc(=O)c3c(O)cc(O)cc3o2)cc1-c1c(O)cc(O)c2c(=O)cc(-c3ccc(O)cc3)oc12 [bilobetin]
≤ -2 | OC[C@H]1O[C@@H](O[C@@H]2OC=C[C@H]3[C@H](O)[C@@H]4O[C@]4(CO)[C@@H]23)[C@H](O)[C@@H](O)[C@@H]1O [catalpol]
≥ 5 | COc1cc(O)c2c(=O)cc(-c3ccc(OC)c(-c4c(O)cc(O)c5c(=O)cc(-c6ccc(O)cc6)oc45)c3)oc2c1 [ginkgetin]
≥ 5 | COc1ccc(-c2cc(=O)c3c(O)cc(O)c(-c4cc(-c5cc(=O)c6c(O)cc(O)cc6o5)ccc4OC)c3o2)cc1 [isoginkgetin]
≥ 5 | CCCCCCCCCCCCCCCCCCCCCCCCCCCCC [nonacosane]
≥ 5 | CCCCCCCCCCCCCCCC(=O)OCC(COC(=O)CCCCCCCCCCCCCCC)OC(=O)CCCCCCCCCCCCCCC [tripalmitin]

Structure (SMILES) | logP
CC[C@H](/C=C/[C@@H](C)[C@H]1CC[C@H]2[C@@H]3CC=C4C[C@@H](O)CC[C@]4(C)[C@H]3CC[C@]12C)C(C)C [stigmasterol] | ≥ 5
O=C(/C=C/c1ccc(O)c(O)c1)O[C@H]1[C@@H]2C=CO[C@@H](O[C@@H]3O[C@H](CO)[C@@H](O)[C@H](O)[C@H]3O)[C@@H]2[C@@]2(CO)O[C@@H]12 [verminoside] | ≤ -2

Tested on: neutrophil respiratory burst (PMA-stimulated neutrophils of peripheral blood)
Assay: Dihydrorhodamine flow cytometric assay for the effect of plant extracts on neutrophil respiratory burst on peripheral blood
Format: cell-based, human
Details: Homo sapiens, Neutrophil; apocynin 300 ug/ml, from calibration curve
Method: 3 Dihydrorhodamine Flow Cytometric Assay for the Effect of Plant Extracts on Neutrophil Respiratory Burst on Peripheral Blood An aliquot (200 μg) of every fraction (obtained by the methods described above) was prepared for assay. The left hand column (Extract number) will be the number used to denote that fraction in subsequent studies and corresponds to the Fraction numbers (“BR0000n”) used above reduced to 1,2, etc., by removal of the “BR00000”. Neutrophils kill organisms they have ingested by exposing them to chemicals known as reactive oxygen species (eg. hydrogen peroxide and hydroxyl ions). These are generated by a process known as the neutrophil respiratory burst. […] Respiratory burst occurs when stimulated neutrophils convert molecular oxygen to oxygen radicals through the activation of NADPH-oxidase. In the dihydrorhodamine (DHR) flow cytometric assay, the respiratory burst is used to produce fluorescent molecules that can be detected by flow cytometry. […] The extent of respiratory burst product can be further quantified using the mean fluorescence intensity of the FL-1 channel (MFI). […] Any background fluorescence (as a further control) is estimated using a tube containing only blood and DHR. […]

Structure (SMILES) | inhibition at 300 µg/mL
COc1cc(C(C)=O)ccc1O [Apocynin, 4-hydroxy-3-methoxyacetophenone] | 45%

Same assay, conditions: Table 4, apocynin alone

Structure (SMILES) | Assay Result
COc1cc(C(C)=O)ccc1O [Apocynin, 4-hydroxy-3-methoxyacetophenone] | 48

Tested on: not listed separately
Assay: log P (Partition Ratio between Octanol/Water)
Details: cucurbitacins present in natural Picrorrhiza kurroa
Description: By most polar is meant a component (or Component) having log P of −2 or more negative, where P is the Partition Ratio between Octanol/Water.
The Table immediately below lists the cucurbitacins present in natural Picrorrhiza kurroa together with their log P value.

Structure (SMILES) | log P
CC(=O)OC(C)(C)/C=C/C(=O)[C@](C)(O)[C@H]1[C@H](O)C[C@@]2(C)[C@@H]3CC=C4[C@H](C[C@H](O)C(=O)C4(C)C)[C@]3(C)C(=O)C[C@]12C [cucurbitacin B] | 2.5 ± 0.6
CC(C)(O)/C=C/C(=O)[C@](C)(O)[C@H]1[C@H](O)C[C@@]2(C)[C@@H]3CC=C4[C@@H](C[C@H](O)C(=O)C4(C)C)[C@]3(C)C(=O)C[C@]12C [cucurbitacin D] | 1.7 ± 0.6
CC(=O)OC(C)(C)/C=C/C(=O)[C@](C)(O)[C@H]1[C@H](O)C[C@@]2(C)[C@@H]3CC=C4[C@@H](C=C(O)C(=O)C4(C)C)[C@]3(C)C(=O)C[C@]12C [cucurbitacin E] | 3.4 ± 0.6
CC(C)(O)/C=C/C(=O)[C@](C)(O)[C@H]1[C@H](O)C[C@@]2(C)[C@@H]3CC=C4[C@@H](C[C@H](O)[C@@H](O)C4(C)C)[C@]3(C)C(=O)C[C@]12C [cucurbitacin F] | 1.9 ± 0.6
CC(C)(O)/C=C/C(=O)[C@](C)(O)[C@H]1[C@H](O)C[C@@]2(C)[C@@H]3CC=C4[C@@H](C=C(O)C(=O)C4(C)C)[C@]3(C)C(=O)C[C@]12C [cucurbitacin I] | 2.5 ± 0.5
CC(C)(O)CCC(=O)[C@](C)(O)[C@H]1[C@H](O)C[C@@]2(C)[C@@H]3CC=C4[C@@H](C[C@H](O)C(=O)C4(C)C)[C@]3(C)C(=O)C[C@]12C [cucurbitacin R] | 1.9 ± 0.6
